Experimental data as given in the supplement of paper PMC10326909.

Assay: ESI positive response factor (isotope-corrected peak area per molar concentration) in SFC/ESI/HRMS (area units per M); higher = higher ionization efficiency
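Also: standards in acetonitrile/water run in triplicate on a zwitterionic HILIC column, CO2–methanol gradient containing 20 mmol/L ammonium acetate, postcolumn makeup flow, Orbitrap full-scan detection.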

Structure (SMILES)	ESI positive response factor (0.0875 µM)	ESI positive response factor (0.35 µM)	ESI positive response factor (0.875 µM)	ESI positive response factor (0.0175 µM)	ESI positive response factor (0.035 µM)	ESI positive response factor (0.175 µM)	also measured
CC(=O)N1CC(O)C[C@H]1C(=O)O (stereo in doubt) [Trans-1-acetyl-4-hydroxy-L-prolin]	1.56e+15	6.42e+15	6.4e+15				ESI positive response factor (1.75 µM): 6.39e+15
CN1C(C)(C)CC(O)CC1(C)C [1,2,2,6,6-Pentamethyl-4-piperidinol]	5.02e+17	4.69e+17	4.18e+17	4.91e+17	5.26e+17	4.63e+17	ESI positive response factor (1.75 µM): 3.68e+17
CN1CCN(C)C1=O [1,3-Dimethyl-2-imidazolidinone]	6.75e+16			6.51e+16	7.85e+16	6.53e+16	
Cn1cnc2c1c(=O)n(CCCC(=O)O)c(=O)n2C [1-(3-Carboxypropyl)-3,7-dimethyl-xanthin]	2.2e+16	2.34e+16	2.22e+16	1.77e+16	2.12e+16	2e+16	
CC(O)CN(CCO)CCO (stereo unspecified) [1-[N,N-Bis(2-hydroxyethyl)amino]-2-propanol]	3.24e+17	2.94e+17		2.91e+17	3.14e+17	2.77e+17	
c1ccc2[nH]nnc2c1 [1H-Benzotriazol]	1.11e+16	1.37e+16			7.96e+15	1.18e+16	
CC1(C)CC(O)CC(C)(C)N1 [2,2,6,6-Tetramethyl-4-piperidinol]	1.53e+17	1.58e+17		1.95e+17	1.78e+17	1.47e+17	
Nc1nc(N)c2nc(CO)cnc2n1 [2,4-Diamino-6-(hydroxymethyl)pteridine]	4.27e+16	3.92e+16	4.05e+16	2.75e+16	4.33e+16	3.56e+16	
NC(=O)c1c(Cl)cccc1Cl [2,6-Dichlorbenzamid]	2.14e+16	2.46e+16	2.38e+16		1.78e+16	2.26e+16	
CCCCCC(C)N (stereo unspecified) [2-Aminoheptane]	1.47e+16				1.87e+16		
Nc1ccccn1 [2-Aminopyridine]	1.55e+16	1.73e+16			1.33e+16	1.48e+16	
c1ccc(CC2=NCCN2)cc1 [2-Benzylimidazoline]		5.75e+15	5.13e+15			4.79e+15	ESI positive response factor (1.75 µM): 4.96e+15
CCCCC(CC)CN (stereo unspecified) [2-Ethyl-1-hexylamine]		1.94e+16				2.01e+16	
O=S(=O)(O)c1ccc2nc(-c3ccccc3)[nH]c2c1 [2-Phenyl-5-benzimidazole]	7.22e+14	3.87e+15	4.7e+15				ESI positive response factor (1.75 µM): 4.96e+15
OCC[C@@H]1CCCC[NH2+]1 [2-Piperidineethanol]							ESI positive response factor (0.0122 µM): 1.24e+17; ESI positive response factor (0.0244 µM): 1.22e+17; ESI positive response factor (0.061 µM): 9.77e+16; ESI positive response factor (0.122 µM): 1.07e+17; ESI positive response factor (0.244 µM): 1.07e+17
O=C1CCCN1 [2-Pyrrolidinone]		8.52e+15	1.07e+16			8.26e+15	ESI positive response factor (1.75 µM): 8.7e+15
C[NH2+]C[C@H](O)CO [3-Methylamino-1,2-propanediol]							ESI positive response factor (0.0122 µM): 7.17e+16; ESI positive response factor (0.0244 µM): 4.4e+16; ESI positive response factor (0.061 µM): 6.78e+16; ESI positive response factor (0.122 µM): 6.39e+16; ESI positive response factor (0.244 µM): 7.28e+16; ESI positive response factor (0.61 µM): 6.66e+16
C1CN(CCOCCN2CCOCC2)CCO1 [4,4'-(Oxydi-2,1-ethanediyl)bismorpholine]	1.92e+17	3.23e+17	4.13e+17	4.89e+17		3.18e+17	ESI positive response factor (1.75 µM): 3.43e+17
Cc1cc(=O)oc2cc(O)ccc12 [4-Methylumbelliferone]							ESI positive response factor (0.0122 µM): 7.52e+16; ESI positive response factor (0.0244 µM): 8.88e+16; ESI positive response factor (0.061 µM): 7.61e+16; ESI positive response factor (0.122 µM): 7.61e+16; ESI positive response factor (0.244 µM): 7.56e+16
O=c1ccnc[nH]1 [4-Pyrimidinol]				1.78e+16	2.97e+16		
Cn1c(N)c(NC=O)c(=O)n(C)c1=O [6-Amino-1,3dimethyl-5-(formylamino)uracil]	8.08e+14	2.17e+15	2.09e+15				ESI positive response factor (1.75 µM): 2.18e+15
C#C[C@]1(O)CC[C@H]2[C@@H]3CCc4cc(O)ccc4[C@H]3CC[C@@]21C [17-Alpha-Ethinylestradiol]	1.85e+16	1.71e+16			1.46e+16	1.59e+16	

Structure (SMILES)	ESI positive response factor (0.0875 µM)	ESI positive response factor (0.35 µM)	ESI positive response factor (0.875 µM)	ESI positive response factor (0.0175 µM)	ESI positive response factor (0.035 µM)	ESI positive response factor (0.175 µM)	also measured
CC(=O)NCCCS(=O)(=O)O [Acamprosate]		3.14e+15	3.18e+15			3.1e+15	ESI positive response factor (1.75 µM): 3.25e+15
CC(=O)Nc1ccc(O)cc1 [Acetaminophen]	4.18e+16	4.29e+16		3.61e+16	4.56e+16	3.74e+16	
CC(=O)OCC[N+](C)(C)C [Acetylcholine]	2.4e+17	2.13e+17		2.2e+17	1.98e+17	2.16e+17	
Nc1ncnc2c1ncn2C1OC(CO)C(O)C1O (stereo unspecified) [Adenosine]	1.26e+17				1.46e+17		
CN(C)CCC=C1c2ccccc2CCc2ccccc21 [Amitriptyline]	3.69e+17	4.54e+17			4.1e+17	4.36e+17	
COC(=O)C1=CCCN(C)C1 [Arecolin]	4.13e+17	3.77e+17		4.44e+17	4.27e+17	3.78e+17	
COC(=O)NS(=O)(=O)c1ccc(N)cc1 [Asulam]	1.31e+16	1.46e+16	1.49e+16		1.24e+16	1.29e+16	ESI positive response factor (1.75 µM): 1.43e+16
CC(C)NCC(O)COc1ccc(CC(N)=O)cc1 (stereo unspecified) [Atenolol]	1.82e+17	1.8e+17		1.75e+17	1.81e+17	1.75e+17	
CCNc1nc(Cl)nc(NC(C)C)n1 [Atrazine]	9.8e+17			1.04e+18	1.07e+18	9.03e+17	
COP(=O)(OC)SCn1c(=O)oc2cc(Cl)cnc21 [Azamethiphos]	6.44e+17			6.62e+17	7.29e+17	6.11e+17	
O=c1[nH]sc2ccccc12 [Benzisothiazolinone]	1.52e+16	1.55e+16			1.45e+16	1.36e+16	
C[N+](C)(C)CC(=O)O [Betaine]	1.14e+17			1.5e+17	1.36e+17		
CCCCC(CC)CNCC(CC)CCCC (stereo unspecified) [Bis(2-ethylhexyl)amine]	9.48e+17			8.07e+17	8.73e+17	9.83e+17	
CC(C)NCC(O)COc1ccc(C(=O)O)cc1 (stereo unspecified) [Bisoprolol-M3]	1.65e+17	1.6e+17		1.43e+17	1.76e+17	1.64e+17	
CCC[C@@H]1O[C@@H]2C[C@H]3[C@@H]4CCC5=CC(=O)C=C[C@]5(C)[C@H]4[C@@H](O)C[C@]3(C)[C@]2(C(=O)CO)O1 [Budesonid]	1.25e+17	1.25e+17		1.27e+17	1.3e+17	1.16e+17	
COc1ccc(O)c(C(C)(C)C)c1 [Butylated hydroxyanisole]	3.78e+15	3.32e+15	3.01e+15			2.82e+15	
Cn1c(=O)c2c(ncn2C)n(C)c1=O [Caffeine]	2.03e+17			2.34e+17	2.22e+17		
CCOc1nc2cccc(C(=O)O)c2n1Cc1ccc(-c2ccccc2-c2nnn[nH]2)cc1 [Candesartan]	8.12e+16	8.92e+16	9.01e+16	5.17e+16	8.14e+16	8.2e+16	ESI positive response factor (1.75 µM): 8.46e+16
CCNC(=O)[C@H](C)OC(=O)Nc1ccccc1 [Carbetamid]	6.85e+16	6.45e+16		5.72e+16	7.07e+16	6.12e+16	
CNC(=O)Oc1cccc2c1OC(C)(C)C2 [Carbofuran]	8.68e+16	9.93e+16		8.85e+16	8.12e+16	7.6e+16	
CC1=C(C(=O)Nc2ccccc2)SCCO1 [Carboxin]	1.07e+17	1.1e+17		7.6e+16	1.1e+17	9.93e+16	
CON(C)C(=O)Nc1ccc(Br)c(Cl)c1 [Chlorbromuron]	4.82e+16	5.21e+16			4.74e+16	4.62e+16	
